Experimental data reported in the supplement of paper PMC10307832.

Legend:
Assay in all cases: relative viability (nuclei count vs DMSO), 5 days (fraction); higher = more cells survive
[1] = system: NCI-H522
Summary of the method: (§1)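 Lung cancer cell lines were pin-tool dosed in 1536-well plates on the day after seeding, with either a lone drug or a fixed anchor-drug dose plus five library-drug doses (not always all listed) in √10 steps. Nuclei were counted on 4× images after 5 days. Relative viability is the ratio of treated-well to vehicle-well nuclei counts, with each value a median of duplicate plates.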

[2] = system: NCI-H520
Summary of the method: as §1

[3] = system: NCI-H1355
Summary of the method: as §1

[4] = system: NCI-H1648
Summary of the method: as §1

[5] = system: IA-LM
Summary of the method: as §1

[6] = system: LCLC-103H
Summary of the method: as §1

## CC1(C)CCC(c2ccc(Cl)cc2)=C(CN2CCN(c3ccc(C(=O)NS(=O)(=O)c4ccc(N[C@H](CCN5CCOCC5)CSc5ccccc5)c(S(=O)(=O)C(F)(F)F)c4)cc3)CC2)C1 [Navitoclax] + O=C(CCCCCCC(=O)Nc1ccccc1)NO [Vorinostat] (partner 1 µM)
[1]; first compound 0.005 µM
  relative viability: 0.957
[1]; first compound 0.01581 µM
  relative viability: 0.934
[1]; first compound 0.05 µM
  relative viability: 0.841
[1]; first compound 0.1581 µM
  relative viability: 0.878
[1]; first compound 0.5 µM
  relative viability: 0.91
[2]; first compound 0.005 µM
  relative viability: 0.743
[2]; first compound 0.01581 µM
  relative viability: 0.817
[2]; first compound 0.05 µM
  relative viability: 0.704
[2]; first compound 0.1581 µM
  relative viability: 0.691
[2]; first compound 0.5 µM
  relative viability: 0.749
[3]; first compound 0.005 µM
  relative viability: 0.63
[3]; first compound 0.01581 µM
  relative viability: 0.685
[3]; first compound 0.05 µM
  relative viability: 0.618
[3]; first compound 0.1581 µM
  relative viability: 0.637
[3]; first compound 0.5 µM
  relative viability: 0.665
[4]; first compound 0.005 µM
  relative viability: 0.292
[4]; first compound 0.01581 µM
  relative viability: 0.471
[4]; first compound 0.1581 µM
  relative viability: 0.412
[4]; first compound 0.5 µM
  relative viability: 0.431
[5]; first compound 0.005 µM
  relative viability: 0.884
[5]; first compound 0.01581 µM
  relative viability: 0.937
[5]; first compound 0.05 µM
  relative viability: 0.919
[5]; first compound 0.1581 µM
  relative viability: 0.875
[5]; first compound 0.5 µM
  relative viability: 0.965
[6]; first compound 0.005 µM
  relative viability: 0.73
[6]; first compound 0.01581 µM
  relative viability: 0.928
[6]; first compound 0.05 µM
  relative viability: 0.96
[6]; first compound 0.1581 µM
  relative viability: 0.807
[6]; first compound 0.5 µM
  relative viability: 0.665

## NC(=O)Nc1cc(-c2cccc(F)c2)sc1C(=O)N[C@H]1CCCNC1 [AZD7762] + Nc1nc2[nH]cc(CCc3ccc(C(=O)N[C@@H](CCC(=O)O)C(=O)O)cc3)c2c(=O)[nH]1 [Pemetrexed] (partner 0.2 µM)
[1]; first compound 0.01 µM
  relative viability: 1.03
[1]; first compound 0.03162 µM
  relative viability: 1.05
[1]; first compound 0.1 µM
  relative viability: 0.862
[1]; first compound 0.3162 µM
  relative viability: 0.943
[1]; first compound 1 µM
  relative viability: 0.791
[2]; first compound 0.01 µM
  relative viability: 0.761
[2]; first compound 0.03162 µM
  relative viability: 0.458
[2]; first compound 0.1 µM
  relative viability: 0.421
[2]; first compound 0.3162 µM
  relative viability: 0.175
[2]; first compound 1 µM
  relative viability: 0.17
[3]; first compound 0.01 µM
  relative viability: 1.07
[3]; first compound 0.03162 µM
  relative viability: 1.03
[3]; first compound 0.1 µM
  relative viability: 1.08
[3]; first compound 0.3162 µM
  relative viability: 0.708
[3]; first compound 1 µM
  relative viability: 0.709
[4]; first compound 0.01 µM
  relative viability: 0.644
[4]; first compound 0.03162 µM
  relative viability: 0.646
[4]; first compound 0.1 µM
  relative viability: 0.704
[4]; first compound 0.3162 µM
  relative viability: 0.553
[4]; first compound 1 µM
  relative viability: 0.631
[6]; first compound 0.01 µM
  relative viability: 0.464
[6]; first compound 0.03162 µM
  relative viability: 0.498
[6]; first compound 0.1 µM
  relative viability: 0.45
[6]; first compound 0.3162 µM
  relative viability: 0.452
[6]; first compound 1 µM
  relative viability: 0.394

## CC1(C)CCC(c2ccc(Cl)cc2)=C(CN2CCN(c3ccc(C(=O)NS(=O)(=O)c4ccc(N[C@H](CCN5CCOCC5)CSc5ccccc5)c(S(=O)(=O)C(F)(F)F)c4)cc3)CC2)C1 [Navitoclax] + Nc1nc2[nH]cc(CCc3ccc(C(=O)N[C@@H](CCC(=O)O)C(=O)O)cc3)c2c(=O)[nH]1 [Pemetrexed] (partner 0.2 µM)
[1]; first compound 0.005 µM
  relative viability: 1.07
[1]; first compound 0.01581 µM
  relative viability: 1.28
[1]; first compound 0.05 µM
  relative viability: 0.885
[1]; first compound 0.1581 µM
  relative viability: 1.11
[1]; first compound 0.5 µM
  relative viability: 1.13
[2]; first compound 0.005 µM
  relative viability: 0.713
[2]; first compound 0.01581 µM
  relative viability: 0.743
[2]; first compound 0.05 µM
  relative viability: 0.699
[2]; first compound 0.1581 µM
  relative viability: 0.571
[2]; first compound 0.5 µM
  relative viability: 0.681
[3]; first compound 0.005 µM
  relative viability: 0.998
[3]; first compound 0.01581 µM
  relative viability: 1.05
[3]; first compound 0.05 µM
  relative viability: 1.11
[3]; first compound 0.1581 µM
  relative viability: 1.03
[3]; first compound 0.5 µM
  relative viability: 1.07
[4]; first compound 0.005 µM
  relative viability: 0.868
[4]; first compound 0.01581 µM
  relative viability: 0.747
[4]; first compound 0.1581 µM
  relative viability: 0.563
[4]; first compound 0.5 µM
  relative viability: 0.833
[6]; first compound 0.005 µM
  relative viability: 0.473
[6]; first compound 0.01581 µM
  relative viability: 0.425
[6]; first compound 0.05 µM
  relative viability: 0.401
[6]; first compound 0.1581 µM
  relative viability: 0.442
[6]; first compound 0.5 µM
  relative viability: 0.368
